We go through one compound from PMC3480357, “Fragment-Hopping-Based Discovery of a Novel Chemical Series of Proto-Oncogene PIM-1 Kinase Inhibitors” (PLoS ONE, 2012).

Holding throughout (experiment): ProQinase kinase panel, % inhibition at fixed concentration
What all share (format): biochemical

One assay deals with AKT1 (Homo sapiens, UniProt P31749). Particulars: inhibitor at 5 µM; average of two data points; read-out: AKT1 percentage of inhibition. As for the experimental part:
(§1) Once compounds 7 and 8 were synthesized, a pairwise comparison was performed to strictly evaluate the real impact of this fragment-hopping where imidazopyridazine is replaced by triazolopyridine.

The next assay concerns the target T1, ARK5 (Homo sapiens, UniProt O60285).
T1 sequence (O60285 1-661): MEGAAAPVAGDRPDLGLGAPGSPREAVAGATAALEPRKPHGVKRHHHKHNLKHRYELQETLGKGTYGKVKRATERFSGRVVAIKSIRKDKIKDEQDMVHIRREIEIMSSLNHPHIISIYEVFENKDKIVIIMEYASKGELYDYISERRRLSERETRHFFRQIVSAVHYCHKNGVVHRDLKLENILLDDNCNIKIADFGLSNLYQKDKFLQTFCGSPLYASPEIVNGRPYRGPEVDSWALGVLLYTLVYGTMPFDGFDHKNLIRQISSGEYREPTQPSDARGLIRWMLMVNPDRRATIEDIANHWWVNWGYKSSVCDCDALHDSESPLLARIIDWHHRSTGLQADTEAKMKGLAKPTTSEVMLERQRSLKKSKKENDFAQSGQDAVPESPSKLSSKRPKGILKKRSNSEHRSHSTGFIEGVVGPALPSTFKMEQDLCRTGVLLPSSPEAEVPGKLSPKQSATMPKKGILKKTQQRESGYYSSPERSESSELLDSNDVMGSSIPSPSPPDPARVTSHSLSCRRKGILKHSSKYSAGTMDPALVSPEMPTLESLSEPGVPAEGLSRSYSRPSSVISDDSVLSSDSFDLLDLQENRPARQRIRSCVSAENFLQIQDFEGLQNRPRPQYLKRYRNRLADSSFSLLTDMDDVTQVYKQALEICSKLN
Particulars: inhibitor at 5 µM; average of two data points; read-out: ARK5 percentage of inhibition. As for the experimental part: as §1

In another assay the target is B-RAF-V600E (Homo sapiens, UniProt P15056, V600E). The settings on record: inhibitor at 5 µM; average of two data points; read-out: B-RAF-V600E percentage of inhibition. As to the method: as §1
For another assay, the target named is CK1-α1 (Homo sapiens, UniProt P48729). The settings on record: inhibitor at 5 µM; average of two data points; read-out: CK1-α1 percentage of inhibition. As to the method:
as §1

The target of a further assay is DYRK1A (Homo sapiens, UniProt Q13627). The settings on record: inhibitor at 5 µM; average of two data points; read-out: DYRK1A percentage of inhibition. As for the experimental part: as §1
For the next assay, the target named is EGF-R (Homo sapiens, UniProt P00533). The settings on record: inhibitor at 5 µM; average of two data points; read-out: EGF-R percentage of inhibition. As to the method:
as §1

A further assay addresses FGF-R1 (Homo sapiens, UniProt P11362). The settings on record: inhibitor at 5 µM; average of two data points; read-out: FGF-R1 percentage of inhibition. As for the experimental part: as §1
Another assay deals with IGF1-R (Homo sapiens, UniProt P08069). The settings on record: inhibitor at 5 µM; average of two data points; read-out: IGF1-R percentage of inhibition. As to the method: as §1
The target in a further assay is JAK2 (Homo sapiens, UniProt O60674). The settings on record: inhibitor at 5 µM; average of two data points; read-out: JAK2 percentage of inhibition. As for the experimental part:
as §1

Another assay deals with MET (Homo sapiens, UniProt P08581). The settings on record: inhibitor at 5 µM; average of two data points; read-out: MET percentage of inhibition. As for the experimental part:
as §1

The target in a further assay is T2, MST1 (Homo sapiens, UniProt Q13043).
T2 sequence (Q13043 1-487): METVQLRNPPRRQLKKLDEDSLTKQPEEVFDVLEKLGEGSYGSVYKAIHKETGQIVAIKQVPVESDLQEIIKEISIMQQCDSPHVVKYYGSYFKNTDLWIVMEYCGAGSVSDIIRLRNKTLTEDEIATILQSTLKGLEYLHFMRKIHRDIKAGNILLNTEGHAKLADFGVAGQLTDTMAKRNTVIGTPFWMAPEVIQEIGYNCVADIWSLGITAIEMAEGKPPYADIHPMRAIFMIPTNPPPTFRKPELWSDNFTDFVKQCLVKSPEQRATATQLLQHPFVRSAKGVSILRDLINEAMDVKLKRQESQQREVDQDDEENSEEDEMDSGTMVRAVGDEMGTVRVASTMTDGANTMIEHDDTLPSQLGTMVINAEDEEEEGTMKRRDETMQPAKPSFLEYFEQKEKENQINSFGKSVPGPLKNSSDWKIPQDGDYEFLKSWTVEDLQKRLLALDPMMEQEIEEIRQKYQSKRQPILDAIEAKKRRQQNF
The settings on record: inhibitor at 5 µM; average of two data points; read-out: MST1 percentage of inhibition. As to the method:
as §1

Another assay deals with PAK1 (Homo sapiens, UniProt Q13153). The settings on record: inhibitor at 5 µM; average of two data points; read-out: PAK1 percentage of inhibition. As for the experimental part: as §1
Another assay has as its target PDGFR-α (Homo sapiens, UniProt P16234). As for the experimental part:
as §1

The target of another assay is RPS6KA1 (Homo sapiens, UniProt Q15418). Particulars: inhibitor at 5 µM; average of two data points; read-out: RPS6KA1 percentage of inhibition. As to the method: as §1
A further assay deals with T3, SGK1 (Homo sapiens, UniProt O00141).
T3 sequence (O00141 1-431): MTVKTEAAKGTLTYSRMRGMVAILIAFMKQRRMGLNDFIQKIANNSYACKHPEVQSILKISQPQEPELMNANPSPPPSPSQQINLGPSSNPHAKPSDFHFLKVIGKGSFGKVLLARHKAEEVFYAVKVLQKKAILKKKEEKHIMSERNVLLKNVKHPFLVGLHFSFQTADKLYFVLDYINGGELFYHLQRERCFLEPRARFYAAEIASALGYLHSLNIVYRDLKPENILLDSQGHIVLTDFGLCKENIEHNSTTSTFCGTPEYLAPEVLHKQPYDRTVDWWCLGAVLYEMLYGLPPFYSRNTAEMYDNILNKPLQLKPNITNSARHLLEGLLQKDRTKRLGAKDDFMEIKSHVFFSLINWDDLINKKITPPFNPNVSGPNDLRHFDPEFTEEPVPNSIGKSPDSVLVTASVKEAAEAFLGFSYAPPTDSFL
As for the experimental part:
as §1

The mark [1] stands for this setting: compound 8 (5 µM) versus compound 3 (10 µM).
The mark [2] stands for this setting: compound 8 (5 µM) vs compound 3 (10 µM).

The structures appear in SMILES notation.

PDGFR-α, sequence (P16234 24-1089, species assumed): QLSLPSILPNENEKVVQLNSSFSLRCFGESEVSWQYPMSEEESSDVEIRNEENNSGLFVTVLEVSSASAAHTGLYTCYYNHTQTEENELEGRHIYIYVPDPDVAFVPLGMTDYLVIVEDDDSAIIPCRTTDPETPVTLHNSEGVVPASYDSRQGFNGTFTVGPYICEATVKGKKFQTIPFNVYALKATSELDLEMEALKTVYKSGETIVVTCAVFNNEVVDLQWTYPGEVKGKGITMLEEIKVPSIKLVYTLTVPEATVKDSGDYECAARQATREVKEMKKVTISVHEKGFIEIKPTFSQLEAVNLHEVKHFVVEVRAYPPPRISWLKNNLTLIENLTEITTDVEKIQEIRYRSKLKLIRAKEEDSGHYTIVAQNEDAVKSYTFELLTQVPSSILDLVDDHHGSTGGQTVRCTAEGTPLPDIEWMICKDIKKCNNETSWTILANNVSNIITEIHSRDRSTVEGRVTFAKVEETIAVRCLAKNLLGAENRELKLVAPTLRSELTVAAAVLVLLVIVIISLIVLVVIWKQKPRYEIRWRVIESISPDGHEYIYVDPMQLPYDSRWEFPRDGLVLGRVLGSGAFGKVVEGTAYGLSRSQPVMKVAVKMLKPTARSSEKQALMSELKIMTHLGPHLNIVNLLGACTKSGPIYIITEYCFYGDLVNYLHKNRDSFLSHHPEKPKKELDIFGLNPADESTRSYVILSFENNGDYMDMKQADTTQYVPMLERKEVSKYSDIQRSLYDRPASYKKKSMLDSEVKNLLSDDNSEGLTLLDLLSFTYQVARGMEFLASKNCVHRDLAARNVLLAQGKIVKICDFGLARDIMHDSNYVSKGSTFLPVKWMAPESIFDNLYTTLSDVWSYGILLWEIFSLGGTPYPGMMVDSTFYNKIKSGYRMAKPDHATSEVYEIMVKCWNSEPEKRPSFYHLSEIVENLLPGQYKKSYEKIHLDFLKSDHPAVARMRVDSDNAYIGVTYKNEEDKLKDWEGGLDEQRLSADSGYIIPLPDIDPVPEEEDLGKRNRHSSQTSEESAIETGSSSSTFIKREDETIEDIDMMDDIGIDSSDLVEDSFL
PAK1, sequence (Q13153 whole entry): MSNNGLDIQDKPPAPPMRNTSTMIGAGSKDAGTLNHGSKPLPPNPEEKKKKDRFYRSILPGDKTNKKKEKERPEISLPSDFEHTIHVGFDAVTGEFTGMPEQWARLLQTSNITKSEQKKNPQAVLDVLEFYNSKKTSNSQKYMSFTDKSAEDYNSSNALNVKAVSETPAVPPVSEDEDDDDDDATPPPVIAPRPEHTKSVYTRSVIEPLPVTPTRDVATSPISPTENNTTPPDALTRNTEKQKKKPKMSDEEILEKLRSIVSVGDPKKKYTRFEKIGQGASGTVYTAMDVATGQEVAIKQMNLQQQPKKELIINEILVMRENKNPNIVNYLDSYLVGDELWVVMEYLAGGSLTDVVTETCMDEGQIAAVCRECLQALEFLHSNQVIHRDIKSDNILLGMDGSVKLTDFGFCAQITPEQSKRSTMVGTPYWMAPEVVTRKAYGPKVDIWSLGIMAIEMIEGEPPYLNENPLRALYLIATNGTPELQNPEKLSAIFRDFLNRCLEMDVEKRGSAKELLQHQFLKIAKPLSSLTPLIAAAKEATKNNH
AKT1, sequence (P31749 whole entry, species assumed, the tested form may be a part): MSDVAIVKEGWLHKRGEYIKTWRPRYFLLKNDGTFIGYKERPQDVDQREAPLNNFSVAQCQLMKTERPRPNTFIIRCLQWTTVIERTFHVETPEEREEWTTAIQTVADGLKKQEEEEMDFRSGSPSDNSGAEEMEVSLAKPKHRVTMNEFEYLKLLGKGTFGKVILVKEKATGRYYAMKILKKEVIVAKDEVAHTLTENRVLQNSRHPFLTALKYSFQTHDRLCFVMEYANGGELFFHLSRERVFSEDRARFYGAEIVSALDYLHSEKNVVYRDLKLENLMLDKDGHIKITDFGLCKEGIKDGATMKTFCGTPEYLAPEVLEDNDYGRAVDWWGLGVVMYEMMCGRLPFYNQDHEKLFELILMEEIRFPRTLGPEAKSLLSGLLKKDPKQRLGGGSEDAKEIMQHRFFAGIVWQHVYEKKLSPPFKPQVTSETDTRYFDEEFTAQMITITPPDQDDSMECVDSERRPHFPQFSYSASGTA
MET, sequence (P08581 25-1390): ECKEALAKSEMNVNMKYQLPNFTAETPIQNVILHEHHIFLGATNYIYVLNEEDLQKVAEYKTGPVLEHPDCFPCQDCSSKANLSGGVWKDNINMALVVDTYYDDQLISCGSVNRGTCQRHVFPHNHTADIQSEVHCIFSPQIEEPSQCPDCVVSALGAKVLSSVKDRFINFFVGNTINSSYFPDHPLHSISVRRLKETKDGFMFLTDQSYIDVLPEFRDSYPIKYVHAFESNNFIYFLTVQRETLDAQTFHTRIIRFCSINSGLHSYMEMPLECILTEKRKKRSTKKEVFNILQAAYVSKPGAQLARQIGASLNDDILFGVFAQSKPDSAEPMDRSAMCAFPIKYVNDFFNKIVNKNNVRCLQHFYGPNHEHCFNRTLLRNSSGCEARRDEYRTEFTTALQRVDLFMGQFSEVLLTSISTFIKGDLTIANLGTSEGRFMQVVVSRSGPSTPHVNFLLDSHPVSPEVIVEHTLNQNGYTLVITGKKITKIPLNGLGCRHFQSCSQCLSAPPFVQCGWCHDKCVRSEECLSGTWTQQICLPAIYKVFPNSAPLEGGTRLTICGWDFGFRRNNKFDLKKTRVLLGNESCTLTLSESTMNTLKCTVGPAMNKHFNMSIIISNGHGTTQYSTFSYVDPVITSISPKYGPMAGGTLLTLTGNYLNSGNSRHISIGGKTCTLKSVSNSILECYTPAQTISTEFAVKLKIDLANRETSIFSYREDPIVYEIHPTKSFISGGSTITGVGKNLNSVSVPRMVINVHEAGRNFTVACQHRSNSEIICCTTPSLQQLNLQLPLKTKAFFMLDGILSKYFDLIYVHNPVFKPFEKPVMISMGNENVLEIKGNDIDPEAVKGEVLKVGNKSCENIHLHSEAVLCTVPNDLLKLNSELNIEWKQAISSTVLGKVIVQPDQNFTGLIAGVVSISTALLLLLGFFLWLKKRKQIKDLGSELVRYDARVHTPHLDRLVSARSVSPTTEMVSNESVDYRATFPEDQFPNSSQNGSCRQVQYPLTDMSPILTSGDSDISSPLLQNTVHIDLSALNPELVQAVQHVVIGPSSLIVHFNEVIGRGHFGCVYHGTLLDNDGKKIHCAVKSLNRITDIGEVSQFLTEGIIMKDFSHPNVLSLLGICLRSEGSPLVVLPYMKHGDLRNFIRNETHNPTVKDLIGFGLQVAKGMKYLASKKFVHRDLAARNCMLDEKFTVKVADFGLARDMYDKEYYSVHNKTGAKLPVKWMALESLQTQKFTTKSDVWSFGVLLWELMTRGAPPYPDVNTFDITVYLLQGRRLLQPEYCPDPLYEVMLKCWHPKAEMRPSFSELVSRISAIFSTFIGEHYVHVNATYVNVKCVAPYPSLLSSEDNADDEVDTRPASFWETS
EGF-R, sequence (P00533 25-1210, species assumed): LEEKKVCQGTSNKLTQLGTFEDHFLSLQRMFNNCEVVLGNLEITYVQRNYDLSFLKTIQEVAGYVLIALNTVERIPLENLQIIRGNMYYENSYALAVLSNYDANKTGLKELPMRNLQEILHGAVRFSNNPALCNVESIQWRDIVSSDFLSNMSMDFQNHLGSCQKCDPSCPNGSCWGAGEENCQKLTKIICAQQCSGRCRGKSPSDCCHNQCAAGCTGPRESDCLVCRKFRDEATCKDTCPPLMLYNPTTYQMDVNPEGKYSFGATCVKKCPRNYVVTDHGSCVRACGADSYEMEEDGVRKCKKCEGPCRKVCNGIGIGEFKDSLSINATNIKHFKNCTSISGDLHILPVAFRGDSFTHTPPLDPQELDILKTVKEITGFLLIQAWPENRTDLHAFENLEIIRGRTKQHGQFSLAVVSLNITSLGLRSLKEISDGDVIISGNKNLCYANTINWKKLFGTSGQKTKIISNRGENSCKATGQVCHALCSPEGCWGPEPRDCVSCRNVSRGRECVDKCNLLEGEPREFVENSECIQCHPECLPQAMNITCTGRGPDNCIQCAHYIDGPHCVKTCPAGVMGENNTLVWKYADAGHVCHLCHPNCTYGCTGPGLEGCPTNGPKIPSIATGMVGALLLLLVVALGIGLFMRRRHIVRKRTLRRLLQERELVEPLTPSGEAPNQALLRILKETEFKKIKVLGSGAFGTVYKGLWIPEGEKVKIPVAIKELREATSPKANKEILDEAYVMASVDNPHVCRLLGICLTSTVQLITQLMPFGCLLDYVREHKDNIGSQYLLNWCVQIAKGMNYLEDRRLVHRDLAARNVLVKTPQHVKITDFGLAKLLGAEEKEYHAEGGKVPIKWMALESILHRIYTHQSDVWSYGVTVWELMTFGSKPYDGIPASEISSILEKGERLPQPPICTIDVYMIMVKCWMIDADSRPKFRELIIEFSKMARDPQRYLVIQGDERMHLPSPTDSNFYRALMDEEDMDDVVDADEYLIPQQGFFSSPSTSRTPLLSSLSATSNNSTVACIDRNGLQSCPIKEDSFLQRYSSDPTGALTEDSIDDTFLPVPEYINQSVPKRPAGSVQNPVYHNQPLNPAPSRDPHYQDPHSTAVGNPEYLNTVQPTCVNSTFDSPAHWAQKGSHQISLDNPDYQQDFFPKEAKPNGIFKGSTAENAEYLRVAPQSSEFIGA
CK1-α1, sequence (P48729 whole entry): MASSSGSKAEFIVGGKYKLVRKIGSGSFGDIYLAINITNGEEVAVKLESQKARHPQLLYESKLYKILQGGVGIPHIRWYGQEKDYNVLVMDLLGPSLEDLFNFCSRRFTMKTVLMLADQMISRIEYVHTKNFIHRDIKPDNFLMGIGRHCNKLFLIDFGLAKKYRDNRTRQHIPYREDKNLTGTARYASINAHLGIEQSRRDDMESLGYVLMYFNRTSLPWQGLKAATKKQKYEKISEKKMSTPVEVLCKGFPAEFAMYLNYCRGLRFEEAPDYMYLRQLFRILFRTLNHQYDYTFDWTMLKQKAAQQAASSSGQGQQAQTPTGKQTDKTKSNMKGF

Regarding `CN1CCC(CNc2ccc3nnn(-c4cccc(OC(F)(F)F)c4)c3n2)CC1` [Compound 8, (1-Methyl-piperidin-4-ylmethyl)-[3-(3-trifluoromethoxy-phenyl)-3H-[1], [2], [3]triazolo[4,5-b]pyridin-5-yl]-amine], the inhibition at 5 µM was 0% at AKT1; 18% on ARK5; 10% on B-RAF-V600E; 8% at CK1-α1; 3% at DYRK1A; 18% on EGF-R. Further, the inhibition at 5 µM on FGF-R1 amounted to 16%; at IGF1-R it was 25%; at JAK2, 0%; at MET, 6%; at MST1, 20%; at PAK1, 2%. The inhibition at 5 µM was 20% at PDGFR-α (inhibitor at 5 µM, average of two data points, read-out: PDGFR-α percentage of inhibition); 37% on RPS6KA1; 0% at SGK1 (inhibitor at 5 µM, average of two data points, read-out: SGK1 percentage of inhibition). Also, the “PDGFR-α increment in percentage of inhibition” value on PDGFR-α (setting [1]) was more than 50%. Further, on PDGFR-α (setting [2]), the “PDGFR-α improvement in percentage of inhibition” value was “c (This designation indicates that the improvement in percentage of inhibition was greater than 50%)”. Moreover, the “SGK1 increment in percentage of inhibition” value at SGK1 (setting [1]) is on record as more than 50%. Also, the “SGK1 improvement in percentage of inhibition” value on SGK1 (setting [2]) was “c (This designation indicates that the improvement in percentage of inhibition was greater than 50%)”.

For orientation: inhibition means how much of the control response was suppressed.
